Like-named read-outs stand apart in the source and are kept apart here. Numbered stars: 1 amine (or outer) side, 2 acyl side, 3 side chain; on linkers, the order of the positions; unused ones are H or OH. Side chains are listed from the residue outwards. Peptide text beside a SMILES is read from it. * marks the point of attachment. Decanoyl(10-(4-HOOC-PhO)) = O=C(O)c1ccc(OCCCCCCCCCC(=O)*)cc1; γGlu = O=C(O)[C@H](CCC(=O)[*:2])N[*:1]; C14 diacid = O=C(O)CCCCCCCCCCCCC(=O)*; AEEA = NCCOCCOCC(=O)O

The target in this test is T1, human GLP-1 receptor (Homo sapiens, UniProt P43220).
T1 construct: expressed in transfected cells; membranes
The test can be described thus: GLP-1 receptor binding: displacement of 125I-GLP-1 (SPA) at low and high albumin. The method, then: The purpose of this experiment is to investigate the binding to the GLP-1 receptor of the GLP-1 derivatives, and how the binding is potentially influenced by the presence of albumin. This is done in an in vitro experiment as described below.
In order to test the binding of the derivatives to albumin, the assay was performed with a low concentration of albumin (0.001%—corresponding to the residual amount thereof in the tracer), as well as with a high concentration of albumin (2.0% added). A shift in the binding affinity, IC50, is an indication that the peptide in question binds to albumin, and thereby a prediction of a potential protracted pharmacokinetic profile of the peptide in question in animal models.
Species (in vitro): Hamster
Biological End Point: Receptor Binding
A stable transfected cell line and a high expressing clone were selected for screening. The cells were grown at 5% CO2 in DMEM, 10% FCS, 1% Pen/Strep (Penicillin/Streptomycin) and 1.0 mg/ml of the selection marker G418.
The cells (approx. 80% confluence) were washed twice in PBS and harvested with Versene (aqueous solution of the tetrasodium salt of ethylenediaminetetraacetic acid), following which they were separated by centrifugation at 1000 rpm for 5 min. The cells/cell pellet must be kept on ice to the extent possible in the subsequent steps. The cell pellet was homogenised with Ultrathurrax for 20-30 seconds in a suitable amount of Buffer 1 (depending on the amount of cells, but e.g. 10 ml). The homogenate was centrifuged at 20000 rpm for 15 minutes. The pellet was resuspended (homogenised) in 10 ml Buffer 2 and re-centrifuged. This step was repeated once more. The resulting pellet was resuspended in Buffer 2, and the protein concentration was determined. The membranes were stored at minus 80° C.
Buffer 1: 20 mM Na-HEPES+10 mM EDTA, pH 7.4
Buffer 2: 20 mM Na-HEPES+0.1 mM EDTA, pH 7.4
Test compounds, membranes, SPA-particles and [^125I]-GLP-1(7-36)NH2 were diluted in assay buffer. 50 ul (micro liter) HSA (“high albumin” experiment containing 2% HSA), or buffer (“low albumin” experiment containing 0.001% HSA), was added to Optiplate, and 25 ul of test compounds were added. 5-10 ug membrane protein/sample was added (50 ul) corresponding to 0.1-0.2 mg protein/ml (to be preferably optimised for each membrane preparation). SPA-particles (Wheatgerm agglutinin SPA beads, Perkin Elmer, #RPNQ0001) were added in an amount of 0.5 mg/well (50 ul). The incubation was started with [^125I]-GLP-1]-(7-36)NH2 (final concentration 0.06 nM corresponding to 49.880 DPM, 25 ul). The plates were sealed with PlateSealer and incubated for 120 minutes at 30° C. while shaking. The plates were centrifuged (1500 rpm, 10 min) and counted in Topcounter.

Setting [1] is: high albumin, 2.0% HSA, read-out: IC50/nM (high HSA).
[2] abbreviates: low albumin, 0.001% HSA, read-out: IC50/nM (low HSA).

T1 sequence (P43220 24-463): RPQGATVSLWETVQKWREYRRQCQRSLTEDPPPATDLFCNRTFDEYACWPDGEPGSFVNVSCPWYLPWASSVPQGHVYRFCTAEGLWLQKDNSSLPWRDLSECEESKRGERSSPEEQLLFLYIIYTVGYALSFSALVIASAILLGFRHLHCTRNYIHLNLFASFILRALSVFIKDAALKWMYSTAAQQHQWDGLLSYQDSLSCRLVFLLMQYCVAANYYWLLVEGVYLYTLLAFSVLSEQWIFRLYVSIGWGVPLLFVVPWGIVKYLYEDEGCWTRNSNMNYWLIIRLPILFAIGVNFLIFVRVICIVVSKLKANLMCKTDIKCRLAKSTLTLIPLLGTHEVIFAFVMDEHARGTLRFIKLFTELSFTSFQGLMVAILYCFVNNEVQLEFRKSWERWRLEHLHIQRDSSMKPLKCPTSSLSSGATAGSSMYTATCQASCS

Consider `CC[C@H](C)[C@H](NC(=O)[C@H](Cc1ccccc1)NC(=O)[C@H](CCCCNC(=O)COCCOCCNC(=O)COCCOCCNC(=O)CC[C@H](NC(=O)CCCCCCCCCCCCC(=O)O)C(=O)O)NC(=O)[C@H](CCCNC(=N)N)NC(=O)[C@@H](NC(=O)[C@H](CCCCNC(=O)COCCOCCNC(=O)COCCOCCNC(=O)CC[C@H](NC(=O)CCCCCCCCCCCCC(=O)O)C(=O)O)NC(=O)[C@H](CCC(N)=O)NC(=O)[C@H](CCC(=O)O)NC(=O)[C@H](CCC(=O)O)NC(=O)[C@H](CC(C)C)NC(=O)[C@H](Cc1ccc(O)cc1)NC(=O)[C@H](CO)NC(=O)[C@H](CO)NC(=O)[C@@H](NC(=O)[C@H](CC(=O)O)NC(=O)[C@H](CO)NC(=O)[C@@H](NC(=O)[C@H](Cc1ccccc1)NC(=O)[C@@H](NC(=O)CNC(=O)[C@H](CCC(=O)O)NC(=O)[C@H](C)NC(=O)[C@@H](N)Cc1c[nH]cn1)[C@@H](C)O)[C@@H](C)O)C(C)C)C(C)C)C(=O)N[C@@H](C)C(=O)N[C@@H](Cc1c[nH]c2ccccc12)C(=O)N[C@@H](CC(C)C)C(=O)N[C@H](C(=O)NCC(=O)O)C(C)C` [Example 27, N^ε24-[2-[2-[2-[[2-[2-[2-[[(4S)-4-carboxy-4-(13-carboxytridecanoylamino)butanoyl]amino]ethoxy]ethoxy]acetyl]amino]ethoxy]ethoxy]acetyl], N^ε27-[2-[2-[2-[[2-[2-[2-[[(4S)-4-carboxy-4-(13-carboxytridecanoylamino)butanoyl]amino]ethoxy]ethoxy]acetyl]amino]ethoxy]ethoxy]acetyl]-[Glu^22,Lys^24, Val^25, Arg^26, Lys^27,Gly^34]-GLP-1-(7-34)-peptide] (H-HAEGTFTSDVSSYLEEQK([AEEA-AEEA-γGlu-C14 diacid])VRK([AEEA-AEEA-γGlu-C14 diacid])FIAWLVG-OH), for which, under setting [1], the IC50 is above 1000 nM.

As to `CC[C@H](C)[C@H](NC(=O)[C@H](Cc1ccccc1)NC(=O)[C@H](CCCCNC(=O)COCCOCCNC(=O)COCCOCCNC(=O)CC[C@H](NC(=O)CCCCCCCCCOc1ccc(C(=O)O)cc1)C(=O)O)NC(=O)[C@H](CCCNC(=N)N)NC(=O)[C@H](C)NC(=O)[C@H](C)NC(=O)[C@H](CCC(N)=O)NC(=O)[C@H](CCC(=O)O)NC(=O)[C@H](CCC(=O)O)NC(=O)[C@H](CC(C)C)NC(=O)[C@H](Cc1ccc(O)cc1)NC(=O)[C@H](CO)NC(=O)[C@H](CO)NC(=O)[C@@H](NC(=O)[C@H](CC(=O)O)NC(=O)[C@H](CO)NC(=O)[C@@H](NC(=O)[C@H](Cc1ccccc1)NC(=O)[C@@H](NC(=O)CNC(=O)[C@H](CCC(=O)O)NC(=O)[C@H](C)NC(=O)[C@@H](N)Cc1c[nH]cn1)[C@@H](C)O)[C@@H](C)O)C(C)C)C(=O)N[C@@H](C)C(=O)N[C@@H](Cc1c[nH]c2ccccc12)C(=O)N[C@@H](CC(C)C)C(=O)N[C@H](C(=O)N[C@@H](CCCNC(=N)N)C(=O)NCC(=O)N[C@@H](CCCNC(=N)N)C(=O)N[C@@H](CCCCNC(=O)COCCOCCNC(=O)COCCOCCNC(=O)CC[C@H](NC(=O)CCCCCCCCCOc1ccc(C(=O)O)cc1)C(=O)O)C(=O)O)C(C)C` [Example 1, N^ε27-[2-[2-[2-[[2-[2-[2-[[(4S)-4-carboxy-4-[10-(4-carboxyphenoxy)decanoylamino]butanoyl]amino]ethoxy]ethoxy]acetyl]amino]ethoxy]ethoxy]acetyl], N^ε37-[2-[2-[2-[[2-[2-[2-[[(4S)-4-carboxy-4-[10-(4-carboxyphenoxy)decanoylamino]butanoyl]amino]ethoxy]ethoxy]acetyl]amino]ethoxy]ethoxy]acetyl]-[Glu^22,Arg^26,Lys^27,Arg^34,Lys^37]-GLP-1-(7-37)-peptide] (H-HAEGTFTSDVSSYLEEQAARK([AEEA-AEEA-γGlu-Decanoyl(10-(4-HOOC-PhO))])FIAWLVRGRK([AEEA-AEEA-γGlu-Decanoyl(10-(4-HOOC-PhO))])-OH; N-terminus and C-terminus assumed), the IC50 under setting [2] worked out at 0.19 nM.

For `CC[C@H](C)[C@H](NC(=O)[C@H](Cc1ccccc1)NC(=O)[C@H](CCCCNC(=O)COCCOCCNC(=O)COCCOCCNC(=O)CC[C@H](NC(=O)CCCCCCCCCOc1ccc(C(=O)O)cc1)C(=O)O)NC(=O)[C@H](CCCNC(=N)N)NC(=O)[C@@H](NC(=O)[C@H](CCCCNC(=O)COCCOCCNC(=O)COCCOCCNC(=O)CC[C@H](NC(=O)CCCCCCCCCOc1ccc(C(=O)O)cc1)C(=O)O)NC(=O)[C@H](CCC(N)=O)NC(=O)[C@H](CCC(=O)O)NC(=O)[C@H](CCC(=O)O)NC(=O)[C@H](CC(C)C)NC(=O)[C@H](Cc1ccc(O)cc1)NC(=O)[C@H](CO)NC(=O)[C@H](CO)NC(=O)[C@@H](NC(=O)[C@H](CC(=O)O)NC(=O)[C@H](CO)NC(=O)[C@@H](NC(=O)[C@H](Cc1ccccc1)NC(=O)[C@@H](NC(=O)CNC(=O)[C@H](CCC(=O)O)NC(=O)[C@H](C)NC(=O)[C@@H](N)Cc1c[nH]cn1)[C@@H](C)O)[C@@H](C)O)C(C)C)C(C)C)C(=O)N[C@@H](C)C(=O)N[C@@H](Cc1c[nH]c2ccccc12)C(=O)N[C@@H](CC(C)C)C(=O)N[C@H](C(=O)N[C@@H](CCCNC(=N)N)C(=O)NCC(=O)N[C@@H](CCCNC(=N)N)C(=O)NCC(=O)O)C(C)C` [Example 28, N^ε24-[2-[2-[2-[[2-[2-[2-[[(4S)-4-carboxy-4-[10-(4-carboxyphenoxy)decanoylamino]butanoyl]amino]ethoxy]ethoxy]acetyl]amino]ethoxy]ethoxy]acetyl], N^ε27-[2-[2-[2-[[2-[2-[2-[[(4S)-4-carboxy-4-[10-(4-carboxyphenoxy)decanoylamino]butanoyl]amino]ethoxy]ethoxy]acetyl]amino]ethoxy]ethoxy]acetyl]-[Glu^22,Lys^24,Val^25,Arg^26,Lys^27,Arg^34]-GLP-1-(7-37)-peptide] (H-HAEGTFTSDVSSYLEEQK([AEEA-AEEA-γGlu-Decanoyl(10-(4-HOOC-PhO))])VRK([AEEA-AEEA-γGlu-Decanoyl(10-(4-HOOC-PhO))])FIAWLVRGRG-OH; N-terminus and C-terminus assumed), the IC50 by setting is: under setting [1], 29 nM; under setting [2], 0.2 nM.

`CC[C@H](C)[C@H](NC(=O)[C@H](Cc1ccccc1)NC(=O)[C@H](CCCCNC(=O)CC[C@H](NC(=O)COCCOCCNC(=O)COCCOCCNC(=O)CCCCCCCCCCCCC(=O)O)C(=O)O)NC(=O)[C@H](CCCNC(=N)N)NC(=O)[C@@H](NC(=O)[C@H](CCCCNC(=O)CC[C@H](NC(=O)COCCOCCNC(=O)COCCOCCNC(=O)CCCCCCCCCCCCC(=O)O)C(=O)O)NC(=O)[C@H](CCC(N)=O)NC(=O)[C@H](CCC(=O)O)NC(=O)[C@H](CCC(=O)O)NC(=O)[C@H](CC(C)C)NC(=O)[C@H](Cc1ccc(O)cc1)NC(=O)[C@H](CO)NC(=O)[C@H](CO)NC(=O)[C@@H](NC(=O)[C@H](CC(=O)O)NC(=O)[C@H](CO)NC(=O)[C@@H](NC(=O)[C@H](Cc1ccccc1)NC(=O)[C@@H](NC(=O)CNC(=O)[C@H](CCC(=O)O)NC(=O)[C@H](C)NC(=O)[C@@H](N)Cc1c[nH]cn1)[C@@H](C)O)[C@@H](C)O)C(C)C)C(C)C)C(=O)N[C@@H](C)C(=O)N[C@@H](Cc1c[nH]c2ccccc12)C(=O)N[C@@H](CC(C)C)C(=O)N[C@H](C(=O)NCC(=O)O)C(C)C` [Example 30, N^ε24-[(4S)-4-carboxy-4-[[2-[2-[2-[[2-[2-[2-(13-carboxytridecanoylamino)ethoxy]ethoxy]acetyl]amino]ethoxy]ethoxy]acetyl]amino]butanoyl], N^ε27-[(4S)-4-carboxy-4-[[2-[2-[2-[[2-[2-[2-(13-carboxytridecanoylamino)ethoxy]ethoxy]acetyl]amino]ethoxy]ethoxy]acetyl]amino]butanoyl]-[Glu^22,Lys^24, Val^25, Arg^26, Lys^27,Gly^34]-GLP-1-(7-34)-peptide] (H-HAEGTFTSDVSSYLEEQK([γGlu-AEEA-AEEA-C14 diacid])VRK([γGlu-AEEA-AEEA-C14 diacid])FIAWLVG-OH): under setting [1], the IC50 is above 1000 nM.
